# Reference: patent publication EP3623369A1, “NOVEL MORPHOLINYL AMINE COMPOUNDS FOR THE TREATMENT OF AUTOIMMUNE DISEASE” (F. Hoffmann-La Roche AG, priority 2018, dated 2020)
# Molecular target: T1, hTLR7 (Homo sapiens, UniProt Q9NYK1)
# T1 sequence (Q9NYK1 27-1049): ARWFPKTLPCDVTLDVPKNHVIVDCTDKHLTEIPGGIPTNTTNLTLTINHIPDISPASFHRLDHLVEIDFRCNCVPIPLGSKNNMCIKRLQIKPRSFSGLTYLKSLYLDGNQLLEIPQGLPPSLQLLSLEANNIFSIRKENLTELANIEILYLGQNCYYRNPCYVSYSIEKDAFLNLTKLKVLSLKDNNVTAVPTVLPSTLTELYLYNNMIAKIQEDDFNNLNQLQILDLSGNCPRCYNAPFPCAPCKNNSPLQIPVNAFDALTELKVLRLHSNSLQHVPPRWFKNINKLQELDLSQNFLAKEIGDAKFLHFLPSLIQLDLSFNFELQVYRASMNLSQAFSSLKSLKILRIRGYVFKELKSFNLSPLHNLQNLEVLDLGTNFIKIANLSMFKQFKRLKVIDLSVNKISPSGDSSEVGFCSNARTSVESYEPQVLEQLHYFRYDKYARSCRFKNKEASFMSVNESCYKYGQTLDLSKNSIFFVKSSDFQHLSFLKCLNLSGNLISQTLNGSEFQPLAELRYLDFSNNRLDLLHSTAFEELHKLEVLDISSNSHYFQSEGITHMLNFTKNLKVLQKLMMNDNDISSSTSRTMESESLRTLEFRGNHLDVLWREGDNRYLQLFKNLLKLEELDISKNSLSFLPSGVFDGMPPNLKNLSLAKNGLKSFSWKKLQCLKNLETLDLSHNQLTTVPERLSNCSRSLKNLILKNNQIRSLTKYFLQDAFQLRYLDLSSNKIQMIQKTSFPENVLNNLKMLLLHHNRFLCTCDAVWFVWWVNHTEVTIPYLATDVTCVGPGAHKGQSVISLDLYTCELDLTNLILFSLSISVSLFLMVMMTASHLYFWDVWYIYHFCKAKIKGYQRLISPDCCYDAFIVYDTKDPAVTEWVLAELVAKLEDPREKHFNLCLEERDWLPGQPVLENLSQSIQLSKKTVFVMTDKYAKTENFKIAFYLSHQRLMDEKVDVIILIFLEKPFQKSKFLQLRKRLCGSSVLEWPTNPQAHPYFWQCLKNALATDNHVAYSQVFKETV
# Test: HEK293-Blue-hTLR-7 cells assay (SEAP reporter, R848 stimulation)
# Type: cell-based
# Conditions: HEK293-Blue-hTLR7 cells, R848, 20 hrs; 0.003 is the lowest tested concentration; read-out: HEK/hTLR7 IC50
# Procedure: The following tests were carried out in order to determine the activity of the compounds of formula (I) or (Ia) in HEK293-Blue-hTLR-7/8/9 cells assay.
# HEK293-Blue-hTLR-7 cells assay:
# A stable HEK293-Blue-hTLR-7 cell line was purchased from InvivoGen (Cat.#: hkb-htlr7, San Diego, California, USA). These cells were originally designed for studying the stimulation of human TLR7 by monitoring the activation of NF-κB. A SEAP (secreted embryonic alkaline phosphatase) reporter gene was placed under the control of the IFN-β minimal promoter fused to five NF-κB and AP-1-binding sites. The SEAP was induced by activating NF-κB and AP-1 via stimulating HEK-Blue hTLR7 cells with TLR7 ligands. Therefore the reporter expression was declined by TLR7 antagonist under the stimulation of a ligand, such as R848 (Resiquimod), for incubation of 20 hrs. The cell culture supernatant SEAP reporter activity was determined using QUANTI-Blue™ kit (Cat.#: rep-qb1, Invivogen, San Diego, Ca, USA) at a wavelength of 640 nm, a detection medium that turns purple or blue in the presence of alkaline phosphatase.
# HEK293-Blue-hTLR7 cells were incubated at a density of 250,000∼450,000 cells/mL in a volume of 170 µL in a 96-well plate in Dulbecco's Modified Eagle's medium (DMEM) containing 4.5 g/L glucose, 50 U/mL penicillin, […], […], 2 mM L-glutamine, 10% (v/v) heat-inactivated fetal bovine serum with addition of 20 µL test compound in a serial dilution in the presence of final DMSO at 1% and 10 µL of 20uM R848 in above DMEM, perform incubation under 37 °C in a CO2 incubator for 20 hrs. Then 20 µL of the supernatant from each well was incubated with 180 µL Quanti-blue substrate solution at 37 °C for 2 hrs and the absorbance was read at 620∼655 nm using a spectrophotometer. The signalling pathway that TLR7 activation leads to downstream NF-κB activation has been widely accepted, and therefore similar reporter assay was modified for evaluating TLR7 antagonist.
row,IC50,SMILES
1,722 nM,"C[C@@H]1CN(c2ccc(C#N)n3nccc23)C[C@H](CN2Cc3ccncc3C2)O1 [Example R2, 4-[(2S,6R)-2-(1,3-dihydropyrrolo[3,4-c]pyridin-2-ylmethy1)-6-methyl-morpholin-4-yl]pyrazolo[1,5-a]pyridine-7-carbonitrile, reference compound]"
2,11 nM,"C[C@@H]1CN(c2ccc(C#N)c3nccnc23)C[C@H](CN2Cc3cnc(N4CCNCC4)cc3C2)O1 [Example 60, 8-[(2R,6S)-2-methyl-6-[(6-piperazin-1-yl-1,3-dihydropyrrolo[3,4-c]pyridin-2-yl)methyl]morpholin-4-yl]quinoxaline-5-carbonitrile]"
3,195 nM,"C[C@@H]1CN(c2ccc(C#N)n3nccc23)C[C@H](CN2Cc3ccc(C4CCNC4)cc3C2)O1 (stereo partly drawn) [Example 9, 4-[(2R,6S)-2-methyl-6-[(5-pyrrolidin-3-ylisoindolin-2-yl)methyl]morpholin-4-yl]pyrazolo[1,5-a]pyridine-7-carbonitrile]"
4,192 nM,"C[C@@H]1CN(c2ccc(C#N)n3nccc23)C[C@H](CN2CCc3ccc(N4CCNCC4)cc3C2)O1 [Example 11, 4-[(2R,6S)-2-methyl-6-[(7-piperazin-1-yl-3,4-dihydro-1H-isoquinolin-2-yl)methyl]morpholin-4-yl]pyrazolo[1,5-a]pyridine-7-carbonitrile]"
5,8 nM,"C[C@@H]1CN(c2ccc3c(c2)CN(C[C@H]2CN(c4ccc(C#N)c5nccnc45)C[C@@H](C)O2)C3)CCN1 [Example 65, 8-[(2R,6S)-2-methyl-6-[[5-[(3R)-3-methylpiperazin-1-yl]isoindolin-2-yl]methyl]morpholin-4-yl] quinoxaline-5-carbonitrile]"
6,50 nM,"COCCN1CCN(c2ccc3c(c2)CN(C[C@H]2CN(c4ccc(C#N)c5nccnc45)C[C@@H](C)O2)C3)CC1 [Example 37, 8-[(2S,6R)-2-[[5-[4-(2-methoxyethyl)piperazin-1-yl]isoindolin-2-yl]methyl]-6-methyl-morpholin-4-yl]quinoxaline-5-carbonitrile]"
7,23 nM,"C[C@@H]1CN(c2ccc(C#N)c3ncccc23)C[C@H](CN2Cc3cnc(N4CCNCC4)cc3C2)O1 [Example 61, 5-[(2R,6S)-2-methyl-6-[(6-piperazin-1-yl-1,3-dihydropyrrolo[3,4-c]pyridin-2-yl)methyl]morpholin-4-yl]quinoline-8-carbonitrile]"
8,29 nM,"C[C@@H]1CN(c2ccc(Cl)c3ncccc23)C[C@H](CN2Cc3ccc(N4CCNCC4)cc3C2)O1 [Example 31, (2R,6S)-4-(8-chloro-5-quinolyl)-2-methyl-6-[(5-piperazin-1-ylisoindolin-2-yl)methyl]morpholine]"
9,18 nM,"C[C@@H]1CN(c2ccc(C#N)c3ncccc23)C[C@H](CN2Cc3cc(N4CCNCC4)cc(F)c3C2)O1 [Example 59, 5-[(2S,6R)-2-[(4-fluoro-6-piperazin-1-yl-isoindolin-2-yl)methyl]-6-methyl-morpholin-4-yl]quinoline-8-carbonitrile]"
10,85 nM,"CCOC(=O)C1CNCCN1c1ccc2c(c1)CN(C[C@H]1CN(c3ccc(C#N)c4ncccc34)C[C@@H](C)O1)C2 (stereo partly drawn) [Example 50, Ethyl 1-[2-[[(2S,6R)-4-(8-cyano-5-quinolyl)-6-methyl-morpholin-2-yl]methyl]isoindolin-5-yl] piperazine-2-carboxylate]"
11,7 nM,"C[C@@H]1CN(c2ccc(C#N)c3ncccc23)C[C@H](CN2Cc3ccc(N4CCNCC4)nc3C2)O1 [Example 80, 5-[(2R,6S)-2-methyl-6-[(2-piperazin-1-yl-5,7-dihydropyrrolo[3,4-b]pyridin-6-yl)methyl]morpholin-4-yl]quinoline-8-carbonitrile]"
12,59 nM,"C[C@@H]1CN(c2ccc(C#N)c3ncccc23)C[C@H](CN2Cc3ccc(CN4CCCCC4)cc3C2)O1 [Example 74, 5-[(2R,6S)-2-methyl-6-[[5-(1-piperidylmethyl)isoindolin-2-yl]methyl]morpholin-4-yl]quinoline-8-carbonitrile]"
13,6 nM,"C[C@@H]1CN(c2ccc(C#N)c3nccnc23)C[C@H](CN2Cc3ccc(N4CCN[C@@H](C)C4)cc3C2)O1 [Example 66, 8-[(2R,6S)-2-methyl-6-[[5-[(3S)-3-methylpiperazin-1-yl]isoindolin-2-yl]methyl]morpholin-4-yl]quinoxaline-5-carbonitrile]"
14,11 nM,"C[C@@H]1CN(c2ccc(C#N)c3ncsc23)C[C@H](CN2Cc3cc(N4CCNCC4)cnc3C2)O1 [Example 25, 7-[(2R,6S)-2-methyl-6-[(3-piperazin-1-yl-5,7-dihydropyrrolo[3,4-b]pyridin-6-yl)methyl]morpholin-4-yl]-1,3-benzothiazole-4-carbonitrile]"
15,47 nM,"C[C@@H]1CN(c2ccc(C#N)c3ncccc23)C[C@H](CN2Cc3ccc(N4CCNC[C@@H]4CO)cc3C2)O1 [Example 82, 5-[(2S,6R)-2-[[5-[(2R)-2-(hydroxymethyl)piperazin-1-yl]isoindolin-2-yl]methyl]-6-methyl-morpholin-4-yl]quinoline-8-carbonitrile]"
16,6 nM,"C[C@@H]1CN(c2ccc(C#N)c3ncsc23)C[C@H](CN2Cc3ccc(N4CCNCC4)cc3C2)O1 [Example 23, 7-[(2R,6S)-2-methyl-6-[(5-piperazin-1-ylisoindolin-2-yl)methyl]morpholin-4-yl]-1,3-benzothiazole-4-carbonitrile]"
17,39 nM,"C[C@@H]1CN(c2ccc(Cl)c3ncccc23)C[C@H](CN2CCc3cc(N4CCNCC4)ccc3C2)O1 [Example 32, (2R,6S)-4-(8-chloro-5-quinolyl)-2-methyl-6-[(6-piperazin-1-yl-3,4-dihydro-1H-isoquinolin-2-yl)methyl]morpholine]"
18,14 nM,"C[C@@H]1CN(c2ccc(C#N)c3ncccc23)C[C@H](CN2CCc3cc(N4CCNCC4)ncc3C2)O1 [Example 70, 5-[(2R,6S)-2-methyl-6-[(6-piperazin-1-yl-3,4-dihydro-1H-2,7-naphthyridin-2-yl)methyl]morpholin-4-yl]quinoline-8-carbonitrile]"
19,9 nM,"C[C@@H]1CN(c2ccc(C#N)c3ncccc23)C[C@H](CN2Cc3ccc(N4CCNCC4C(F)F)cc3C2)O1 (stereo partly drawn) [Example 76, 5-[(2S,6R)-2-[[5-[2-(difluoromethyl)piperazin-1-yl]isoindolin-2-yl]methyl]-6-methyl-morpholin-4-yl]quinoline-8-carbonitrile]"
20,238 nM,"CC1c2ccc(N3CCNCC3)cc2CN1C[C@H]1CN(c2ccc(C#N)c3ncccc23)C[C@@H](C)O1 (stereo partly drawn) [Example 48, 5-[(2R,6S)-2-methyl-6-[(1-methyl-5-piperazin-1-yl-isoindolin-2-yl)methyl]morpholin-4-yl]quinoline-8-carbonitrile]"
21,41 nM,"C[C@@H]1CN(c2ccc(C#N)c3nccnc23)C[C@H](CN2Cc3ccc(N4CCN(C5CC5)CC4)cc3C2)O1 [Example 35, 8-[(2S,6R)-2-[[5-(4-cyclopropylpiperazin-1-yl)isoindolin-2-yl]methyl]-6-methyl-morpholin-4-yl]quinoxaline-5-carbonitrile]"
